Series [1] deals with T1, DAO (Homo sapiens, UniProt P19801).
T1 construct: purchased R&D Systems
T1 sequence (P19801 20-751): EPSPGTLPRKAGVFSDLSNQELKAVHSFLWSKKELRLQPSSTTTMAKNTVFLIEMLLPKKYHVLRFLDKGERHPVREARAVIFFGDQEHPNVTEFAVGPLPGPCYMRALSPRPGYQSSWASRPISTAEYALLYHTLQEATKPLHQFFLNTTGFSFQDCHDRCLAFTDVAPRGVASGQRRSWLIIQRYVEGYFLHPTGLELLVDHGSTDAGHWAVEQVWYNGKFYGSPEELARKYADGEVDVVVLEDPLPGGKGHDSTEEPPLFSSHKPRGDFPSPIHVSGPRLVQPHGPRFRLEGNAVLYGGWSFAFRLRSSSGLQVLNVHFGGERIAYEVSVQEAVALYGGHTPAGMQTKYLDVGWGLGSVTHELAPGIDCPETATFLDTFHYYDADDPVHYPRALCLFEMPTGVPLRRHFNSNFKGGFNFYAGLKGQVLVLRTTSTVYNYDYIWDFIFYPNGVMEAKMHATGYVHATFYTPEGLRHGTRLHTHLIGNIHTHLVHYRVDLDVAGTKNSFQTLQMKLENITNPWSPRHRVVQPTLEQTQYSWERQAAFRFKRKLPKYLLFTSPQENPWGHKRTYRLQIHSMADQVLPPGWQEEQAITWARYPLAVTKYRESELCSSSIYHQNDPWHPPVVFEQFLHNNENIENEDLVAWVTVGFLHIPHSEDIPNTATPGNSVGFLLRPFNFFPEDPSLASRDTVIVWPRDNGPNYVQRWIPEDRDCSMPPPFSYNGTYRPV
Put plainly: Inhibition of the enzymatic activity of DAO. It counts as biochemical. As to conditions: DAO 15 μg/ml, histamine substrate; read-out: IC50, inhibition against the enzymatic activity of DAO. The method, then:
Inhibition Experiment Against the Enzymatic Activity of DAO (Diamine Oxidase)
(§1) 1. Test kit: Amplex® Red Monoamine Oxidase Assay, Manufacturer: ThermoFisher
Protein: DAO, manufacturer: R&D Systems
DAO protein (15 μg/ml) and different concentrations of the test compound were pre-incubated at room temperature for 20 minutes, and then 100 μM Histamine-dihydrochloride, 1 U/mL HRP and 200 μM Amplex Red reagent were added to start the reaction. The inhibition rate of each concentration groups were calculated according to the experimental method of MAO-A.

The target in series [2] is T2, hERG (Homo sapiens, UniProt Q12809).
T2 construct: purchased ThermoFisher; host or cells: hERG cell membrane supplied with the kit
Put plainly: hERG fluorescence polarization inhibition experiment. As to conditions: hERG cell membrane, 25° C. 2 hours, read-out: hERG (IC50 range, competitive binding vs tracer). The essentials:
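Fluorescence-polarization tracer displacement on hERG cell membranes; compound and high-affinity tracer incubated 2 h at 25 °C. % inhibition from mP relative to buffer (0%) and 30 μM E4031 (100%) over several concentrations, giving an IC50 range.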
For orientation: Block of hERG is tested as a sign of cardiac risk.

Series [3] has as its target T3, MAO-A (Homo sapiens, UniProt P21397).
T3 construct: purchased Sigma Aldrich
T3 sequence (P21397 1-527): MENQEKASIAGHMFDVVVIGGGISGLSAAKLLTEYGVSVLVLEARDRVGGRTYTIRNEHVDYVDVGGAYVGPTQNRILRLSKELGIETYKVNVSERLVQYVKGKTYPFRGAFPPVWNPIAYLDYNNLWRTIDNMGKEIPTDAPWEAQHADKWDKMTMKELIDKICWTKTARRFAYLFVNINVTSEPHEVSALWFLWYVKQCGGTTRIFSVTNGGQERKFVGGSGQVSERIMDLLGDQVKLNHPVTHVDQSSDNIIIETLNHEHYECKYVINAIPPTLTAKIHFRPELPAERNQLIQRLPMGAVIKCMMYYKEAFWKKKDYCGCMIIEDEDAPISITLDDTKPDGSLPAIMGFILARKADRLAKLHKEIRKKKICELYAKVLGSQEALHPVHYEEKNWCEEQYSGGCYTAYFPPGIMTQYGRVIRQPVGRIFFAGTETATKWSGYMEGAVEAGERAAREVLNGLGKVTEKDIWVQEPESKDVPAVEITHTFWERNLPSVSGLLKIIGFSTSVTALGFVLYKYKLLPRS
Put plainly: Inhibition of the enzymatic activity of MAO-A. It counts as biochemical. As to conditions: range of IC50 from inhibition rates at 100 μM and 10 μM; read-out: IC50, inhibition against the enzymatic activity of MAO-A. On the procedure:
Inhibition Experiment Against the Enzymatic Activity of MAO-A (Monoamine Oxidase Type A)
as §1
2. Reaction Buffer Solution: 50 mM PBS, pH 7.4
Protein: MAO-A, manufacturer: Sigma Aldrich
According to the method as described in the specification of the kit, MAO-A protein (15 μg/ml) and different concentrations of the test compound were pre-incubated at room temperature for 30 minutes, and then 200 μM p-tyramine hydrochloride, 1 U/mL HRP and 200 µM Amplex Red reagent were added to start the reaction. In kinetic mode, fluorescence signals were measured at Ex/Em=540/590 nm. The inhibition rate of each concentration group was calculated, wherein the ratio of fluorescence signal to reaction time ratio is the reaction rate, the vehicle group (DMSO) is the negative control, and the reaction buffer solution group (without enzymes and the compounds) is the blank control.
Percent inhibition rate (%)=(1-(reaction rate of each compound concentration group−reaction rate of the blank group)/(reaction rate of vehicle group−reaction rate of the blank group))*100.
According to the above method, the inhibition of the compound against the enzymatic activity of MAO-A was measured, and the range of IC50 was obtained according to the inhibition rates at 100 μM and 10 μM.

Counter-ions that a name gives are not always drawn. Bounds are passed on as bounds.

As usually defined, the IC50 is the concentration that inhibits the measured activity by half.

T2 sequence (Q12809 whole entry): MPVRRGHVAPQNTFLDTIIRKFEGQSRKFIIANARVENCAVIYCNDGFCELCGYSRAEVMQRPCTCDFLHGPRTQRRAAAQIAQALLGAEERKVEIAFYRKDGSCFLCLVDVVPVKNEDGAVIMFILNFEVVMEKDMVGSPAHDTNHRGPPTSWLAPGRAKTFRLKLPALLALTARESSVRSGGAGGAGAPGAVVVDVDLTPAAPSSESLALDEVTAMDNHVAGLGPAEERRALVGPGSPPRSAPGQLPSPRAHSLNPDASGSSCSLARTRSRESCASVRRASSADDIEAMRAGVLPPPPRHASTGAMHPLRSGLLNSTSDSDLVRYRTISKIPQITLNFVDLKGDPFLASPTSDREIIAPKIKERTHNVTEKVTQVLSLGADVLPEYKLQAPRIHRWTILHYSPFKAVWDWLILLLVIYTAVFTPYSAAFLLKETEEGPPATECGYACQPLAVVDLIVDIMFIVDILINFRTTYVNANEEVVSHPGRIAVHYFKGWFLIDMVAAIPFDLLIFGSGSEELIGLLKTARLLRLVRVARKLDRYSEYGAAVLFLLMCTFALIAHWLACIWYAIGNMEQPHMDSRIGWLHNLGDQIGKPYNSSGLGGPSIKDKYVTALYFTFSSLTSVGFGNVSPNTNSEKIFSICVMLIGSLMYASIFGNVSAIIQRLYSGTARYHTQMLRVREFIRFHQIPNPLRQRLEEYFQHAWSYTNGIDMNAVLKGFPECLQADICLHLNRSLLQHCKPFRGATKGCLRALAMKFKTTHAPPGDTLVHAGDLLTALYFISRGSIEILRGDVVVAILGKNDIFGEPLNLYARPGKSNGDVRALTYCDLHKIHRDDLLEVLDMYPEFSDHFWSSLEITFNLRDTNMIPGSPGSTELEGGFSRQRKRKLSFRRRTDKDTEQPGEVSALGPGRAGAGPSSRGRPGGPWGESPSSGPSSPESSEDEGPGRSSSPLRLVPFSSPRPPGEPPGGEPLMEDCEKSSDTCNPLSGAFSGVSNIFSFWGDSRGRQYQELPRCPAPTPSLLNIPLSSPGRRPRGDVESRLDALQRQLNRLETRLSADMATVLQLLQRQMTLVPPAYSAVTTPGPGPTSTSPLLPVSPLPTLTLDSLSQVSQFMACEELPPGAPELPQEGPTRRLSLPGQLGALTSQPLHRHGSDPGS

Take `NC/C(=C\F)COc1ccc(C(=O)Nc2ccccc2)cc1` [TM1-E, (E)-N-phenyl-4-((2-aminomethyl-3-fluoroallyl)oxy)-benzamide trifluoroacetate]: the IC50 in series [1] is more than 0.1 µM; in series [2], more than 10 µM.

As to `NC/C(=C\F)COc1ccc2c(c1)C(=O)CC2` [TM7-E, (E)-6-((2-aminomethyl-3-fluoroallyl)oxy)-2,3-dihydro-1-indenone trifluoroacetate], the IC50 in series [3] is more than 100 µM; in series [1], more than 1 µM; in series [2], more than 10 µM.

As for `NC/C(=C/F)COc1ccc2c(c1)CCNC2=O` [TM26-Z, (Z)-6-((2-aminomethyl-3-fluoroallyl)oxy)-3,4-dihydroisoquinolin-1(2H)-one trifluoroacetate], the results for the IC50 in series [3] and in series [2] were more than 100 µM and more than 10 µM, respectively.

Consider `NC/C(=C\F)COc1ccc(-c2ncccn2)cc1` [TM39-E, (E)-2-(4-(2-pyrimidyl)phenoxymethyl)-3-fluoroallylamine trifluoroacetate], for which the IC50 in series [3] and in series [2] was more than 10 µM in each case.

Consider `NC/C(=C\F)COc1ccc(C(=O)NC2CCOCC2)cc1` [TM76-E, (E)-N-(tetrahydro-2H-pyran-4-yl)-4-((2-aminomethyl-3-fluoroallyl)oxy)-benzamide trifluoroacetate], for which the IC50 in series [3] is more than 100 µM; in series [1] it was more than 0.1 µM; in series [2], more than 10 µM.

As to `NC/C(=C/F)COc1ccc(C(=O)NCc2ccccn2)cc1` [TM112-Z, (Z)-4-((2-aminomethyl-3-fluoroallyl)oxy)-N-(pyridin-2-ylmethyl)benzamide trifluoroacetate], the figures for the IC50 in series [3], in series [1] and in series [2] were more than 100 µM, more than 0.1 µM and more than 10 µM, respectively.

With “(E)-6-((2-(methylamino)-3-fluoroallyl)oxy)-2-methyl-3,4-dihydroisoquinolin-1(2H)-one trifluoroacetate [TM66-E]”, the IC50 in series [3] is more than 10 µM; in series [1], more than 0.1 µM; in series [2], more than 10 µM.

For “(E)-6-((2-(methylamino)-3-fluoroallyl)oxy)-3,3-dimethyl-3,4-dihydro-isoquinolin-1(2H)-one trifluoroacetate [TM38-E]”, the IC50 in series [3] is more than 100 µM; in series [1] it was more than 1 µM; in series [2], more than 10 µM.

The values are drawn from patent publication US20200087248A1, “Fluoroallylamine Derivative And Use Thereof” (SICHUAN KELUN-BIOTECH BIOPHARMACEUTICAL CO., LTD., priority 2017, published 2020).
